d = 2'-deoxy (DNA); m = 2'-O-methyl
Experiments:
[1] = test system: HeLaLuc705 cells; assay: SSO-mediated luciferase induction assay; type: cell-based; details: for EC50: luciferase induction by SSO623
Description: FIG. 1B-1E. Effects with SSOs. FIG. 1B Structure of UNC2383. […] The cells were then rinsed and incubation continued for an additional 4 h in DMEM+10% FBS. Cells were rinsed twice in PBS and luciferase activity (RLU) and cell protein determined. The larger round symbol indicates the MM oligonucleotide. Means+/−SE. N=3. […] The cells were further incubated and then luciferase and protein determined. The total time of incubation in each case was 6 h. […] Means+/−SE. N=3.
(§1) FIG. 3. Effect and Cytotoxicity of Analogs. The effect of selected UNC2383 analogs on luciferase induction by SSO623 was measured as described in Methods and in the legend of FIG. 1B-1E. Cytotoxicity was measured using the Alamar Blue method as in FIG. 1E. MM10 is the effect of 10 uM compound in the presence of a mismatched oligonucleotide. Means and SE. N=3.
HeLaLuc705 cells are stably transfected with a firefly luciferase reporter whose coding sequence is interrupted by an abnormal intron. […] NIH-3T3-MDR cells are stably transfected with a human MDR1 cDNA coding for the P-glycoprotein (Pgp). We have described the maintenance and use of these cell lines elsewhere. (18, 20)
(§2) SSO-mediated luciferase induction assays were conducted as previously described. (18) In short, HeLaLuc705 cells in 24 well culture plates were preincubated with SSO623 followed by brief treatment with the small molecule; at intervals thereafter, luciferase activity and protein content were determined. […] (30)

[2] = test system: CFTR channel activity in human bronchial epithelial cells (HBEC) from a 3849+10 kbC-T homozygous patient; assay: Ussing chamber analysis of CFTR function in 3849+10 kbC-T HBEC; type: cell-based; details: SSO A 1 uM overnight, OEC 4 uM 2 hs luminal or serosal, 72 h, approved drugs in parallel
From the text: FIG. 11. CFTR activity restored to CF splicing mutation 3849+10 kbC-T using SSOs. SSOs were delivered in vitro by electroporation (˜100% efficiency), CF primary cells were differentiated on permeable supports and tested. Panel A. PCR analysis. The lower band is the correctly spliced CFTR. Panel B. Functional correction by Ussing chamber analysis.
FIG. 12. OEC Mediated Delivery of a SSO in 3849+10 kbC-T HBEC. Well-differentiated human bronchial epithelial cells (HBEC) derived from a 3849+10 kbC-T homozygous patient were incubated with corrective (LNA) SSO A from FIG. 1 (1 uM, overnight). Cells were then incubated with OEC UNC2383 in the luminal or serosal bath (4 uM, 2 hs). Both the SSO and OEC were added in cell growing medium. Seventy two hour later, HBEC were analyzed in Ussing chamber for CFTR function. Orkambi® was tested in parallel inserts.
Results: In vitro studies were performed in well-differentiated HBEC cells derived from a homozygous 3849+10 kbC→T CF patient (CF HBEC) treated with one dose of a specific SSO (1 uM, 12 hs) followed by one dose of OEC (apical or basolateral delivery, 2-4 uM, 2-3 hs). A significant increase of forskolin-stimulated CFTR activity in Ussing chamber analyses was observed 24-96 hs after SSO+OEC treatment compared to SSO alone treatment or vehicle. OEC was efficacious delivered apically as well as basolaterally. Transepithelial resistance and microscopy tests were implemented to monitor cytotoxicity, which was negligible for both SSO and OEC (FIG. 12). In vivo studies were performed in a transgenic mouse model that has a SSO-inducible EGFP reporter.
SSOs (100 nM) were introduced in airway epithelial cells derived from a 3849+10 kbC-T homozygous CF patient in suspension by electroporation using the Neon system, program A4. Cells were differentiated for 2 weeks in culture on human collagen-coated permeable supports (Millipore) before being tested in Ussing chambers following methods described in Kreda et al. […] “Characterization of Wild-Type and ΔF508 Cystic Fibrosis Transmembrane Regulator in Human Respiratory Epithelia” Mol. Biol. Cell 16(5):2154-2167 (100 uM Amiloride, Amil; 10 uM Forskolin, Fsk; 20 uM CFTR inhibitor 172). After Ussing chamber analysis, cells were lysed and assayed for RT-PCR as described in Wang et al 2017 (FIG. 11).
(SEQ ID NO:2), C (5′+G*mA*mG*mU*+C*mU*mU**mU*mA*+C*mU*mC*mA*mC*mC*+A*mU*mU*mU) (SEQ ID NO:3) (Locked Nucleic Acid (LNA)=+, PS=*, 2′OMe=m). In SSO sequences A, B, and C the underlined bases indicate oligo bases that match up to the bases in the mutated splice site in the 3849+10 kb C-T CFTR splicing mutation. MM623 or SSO623 sequences are described herein. […]

[3] = test system: HeLa Luc705 cells; assay: Alamar Blue cytotoxicity assay; type: cell-based; details: ratio of cytotoxicity TC50 to luciferase induction EC50
Description: (§3) FIG. 1B-1E. Effects with SSOs. FIG. 1B Structure of UNC2383. FIG. 1C Compound 2383 enhances SSO effects. Cells were incubated in 24-well plates with 100 nM SSO623 or its mismatched control (MM) for 16 h in DMEM+10% FBS, rinsed and then treated with various concentrations of 2383 for 2 h. The cells were then rinsed and incubation continued for an additional 4 h in DMEM+10% FBS. Cells were rinsed twice in PBS and luciferase activity (RLU) and cell protein determined. The larger round symbol indicates the MM oligonucleotide. Means+/−SE. N=3. FIG. 1D Kinetics of 2383 action. Cells were preloaded with 100 nM SSO623 and then exposed to 2383 for various periods after which the compound was removed. The cells were further incubated and then luciferase and protein determined. The total time of incubation in each case was 6 h. FIG. 1E Cytotoxicity of 2383. HeLa Luc705 or NIH-3T3-MDR cells were exposed to 2383 as in (FIG. 1C) then incubated for 24 h in DMEM plus 10% FBS and tested using the Alamar Blue cytotoxicity assay. Means+/−SE. N=3.
as §1
(§4) SSO-mediated luciferase induction assays were conducted as previously described. (18) In short, HeLaLuc705 cells in 24 well culture plates were preincubated with SSO623 followed by brief treatment with the small molecule; at intervals thereafter, luciferase activity and protein content were determined. ASO mediated inhibition of MDR1 gene expression utilized an Alexa 488 labeled anti-P-glycoprotein antibody and flow cytometry to measure Pgp expression as described. (20) The anti-MDR1 sequence is 5′-CCATCccgacctcgcGCTCC-3′(SEQ ID NO: 5) (all phosphorothiopate with 2-O-Me residues in capitals). Cytotoxicity of 2383 was monitored using the Alamar Blue assay. (30)

[4] = Alamar Blue cytotoxicity assay; type: cell-based; details: human, HeLa Luc705 cells; Alamar Blue cytotoxicity; read-out: TC50
Description: as §3, §1, §4

[5] = test system: lysosomes of HeLa Luc 705 cells; assay: Lysotracker Red accumulation assay; type: cell-based; details: 10 μM
Description: FIG. 9A-9D. Effects on lysosomes. FIG. 9A: Lysotracker uptake. Accumulation of Lysotracker Red in HeLa Luc 705 cells was measured after a 2 h exposure of cells to the indicated concentrations of various analogs. The lysosomotropic compound chloroquine was included as a positive control. Means of triplicate determinations are shown. The color-coded numbers refer to the fold increase in luciferase induction attained by the concentration of analog associated with the adjacent symbol on the graph. The numbers are taken from the data of FIG. 1C for UNC2383 and FIG. 4 for UNC4267, UNC4258, and UNC4428. FIG. 9B: LT50 vs TC50. […] Nonlinear regression was calculated using Prism software. The R^2 value for the plot is 0.91. FIG. 9C: 2383 vs chloroquine; luciferase induction. HeLa Luc705 cells were exposed to SSO623 and then treated with various concentrations of UNC2383 or chloroquine for 2 h and then tested for luciferase induction following the methods described in FIG. 1B-FIG. 1E. […]
The integrity of lysosomes was evaluated using the fluorescent probe Lysotracker Red (Thermo Fisher). […] Cells were thoroughly rinsed in PBS, lysed in 0.2% TX 100, and centrifuged briefly at 4000 rpm, and 100 uL of the supernate was distributed to black 96 well plates for analysis of fluorescence using a FLUOstar Omega 96 well microplate reader.

[6] = test system: P-glycoprotein (Pgp) expression in NIH-3T3-MDR cells; assay: ASO mediated inhibition of MDR1 gene expression (Pgp by flow cytometry); type: cell-based, mouse; details: 100 nM anti-MDR1 ASO 16 h; 10 μM UNC2383 2 h where used; 48 h
Description: FIG. 4. Effects with ASOs. Reduction of Pgp expression. NIH 3T3-MDR cells were incubated with 100 nM anti-MDR1 ASO or a mismatched (MM) control for 16 h in DMEM+1% FBS. Cells were rinsed and then treated with 10 μM UNC2383 for 2 h. The compound was removed, and the cells further incubated for 48 h. Expression of Pgp on the cell surface was determined by treating cells with Alexa 488 labeled anti-Pgp monoclonal antibody and binding quantitated by flow cytometry (PE(A)=units of fluorescence intensity). Treatment with ASO complexed with Lipofectamine 2000 (L2K) was a positive control. Y axis, cell counts; X axis, Alexa 488 fluorescence. […] Means±SE, N=3.
We also tested UNC2383 for its ability to affect ASOs rather than SSOs. The ASO was designed to inhibit expression of the MDR1 gene and its product the P-glycoprotein multidrug transporter. […] Cell surface expression of P-glycoprotein was monitored using an Alexa 488 labeled anti-Pgp monoclonal antibody and flow cytometry. […]
as §2, with “Cytotoxicity of 2383 was monitored using the Alamar Blue assay. […]” for “(30)”

[7] = mouse, in vivo
Description: All animal procedures were conducted in compliance with guidelines of the UNC Laboratory Animal Medicine Department and with federal guidelines. […] (20, 32) EGFP654 mice were administered 35 mg/kg of SSO623 or mismatched oligonucleotide in buffer by intraperitoneal injection on two consecutive days. One day later, mice received either 5 mg/kg of UNC2383 in a 1:1 DMSO/PEG400 solution or only the diluent, via intraperitoneal injection. […] After 24 h, the second cohort was euthanized and tissue and cardiac blood samples were obtained. […] (31) Blood samples were analyzed by the UNC Animal Clinical Chemistry Core facility.

Row | EC50 [1] | Molecule | TC50/EC50 [3] | CC50 at 2 h [4] | further results
1 | 2 µM | O=C(Nc1nc2ccccc2n1CCN1CCCC1)c1cc2cc(Br)ccc2o1 [UNC4251] | 3.5 | 7 µM | –
2 | 11 µM | COc1ccc2oc(C(=O)Nc3nc4ccccc4n3CCN3CCCC3)cc2c1 [UNC4253] | 4.4 | 48 µM | –
3 | 6 µM | O=C(Nc1nc2cc(Cl)ccc2n1CCN1CCCC1)c1cc2cc(Cl)ccc2o1 [UNC4425] | 2.1 | 12.5 µM | –
4 | 3.5 µM | Cc1ccc2c(c1)nc(NC(=O)c1cc3cc(Cl)ccc3o1)n2CCN1CCCC1 [UNC4426] | 3.7 | 13 µM | –
5 | 10 µM | O=C(Nc1nc2cc(Cl)c(Cl)cc2n1CCN1CCCC1)c1cc2cc(Cl)ccc2o1 [UNC4428] | 5 | 50 µM | effect on lysotracker accumulation [5]: little effect; enhancement of SSO actions ([1]; 10 μM): quite strongly enhanced

Further lines, the molecule ahead of its results:

Row | Molecule | EC50 [1] | TC50/EC50 [3] | CC50 at 2 h [4] | further results
6 | CCN(CC)CCCC(C)Nc1ccnc2cc(Cl)ccc12 (centres unmarked) [Chloroquine, chloroquine, reference compound] | – | – | – | SSO-mediated luciferase induction, comparison with chloroquine ([1]; FIG. 9C, 2 h, chloroquine also 16 h): little effect
7 | CC(C)(C)c1cc(C(C)(C)C)c(NC(=O)c2c[nH]c3ccccc3c2=O)cc1O [Ivactafor®/Kalydeco®, reference compound] | – | – | – | CFTR channel activity / functional correction [2]: minimal effect; CFTR channel activity / functional correction ([2]; listed as Kalydeco®): no effect
8 | ASO: anti-MDR1 antisense oligonucleotide 5′-CCATCccgacctcgcGCTCC-3′ (SEQ ID NO: 5) (antisense CCATCCCGACCTCGCGCTCC; sugars from the 5' end m5 d10 m5, all phosphorothioate, methylation of C and T or U not given here) [reference compound] | – | – | – | Pgp expression on the cell surface [6]: virtually no effect
9 | SSO623: 2′-O Me phosphorothioate splice switching oligonucleotide 5′-GTTATTCTTTAGAATGGTGC-3′ (SEQ ID NO: 4) (all 2'-O-methyl, all phosphorothioate, T or U not given here) | – | – | – | ALT [7]: 51 +/− 8 U/L; AST [7]: 65 +/− 23 U/L; BUN [7]: 23 ± 2 mg/dL; Hb [7]: 13.8 ± 0.8 g/dL; Platelets [7]: 824 +/− 266 × 10^3/ul
